Active and inactive are the calls of the source. No cut-off for these calls is given here.
What was measured:
[1] = molecular target: TGF-beta receptor type-1 (Homo sapiens) (UniProt P36897); assay: TGFBR1 Kinase panel; details: Compound concentration 1.0 uM
[2] = molecular target: Serine/threonine-protein kinase PAK 4 (Homo sapiens) (UniProt O96013); assay: PAK4 Kinase panel; details: Compound concentration 1.0 uM
[3] = molecular target: Dual specificity mitogen-activated protein kinase kinase 6 (Homo sapiens) (UniProt P52564); assay: MKK6 Kinase panel; details: Compound concentration 1.0 uM
[4] = molecular target: G protein-coupled receptor kinase 6 (Homo sapiens) (UniProt P43250); assay: GRK6 Kinase panel; details: Compound concentration 1.0 uM
[5] = molecular target: Hepatocyte growth factor receptor (Homo sapiens) (UniProt P08581); assay: Met Kinase panel; details: Compound concentration 1.0 uM
[6] = molecular target: Serine/threonine-protein kinase DCLK2 (Homo sapiens) (UniProt Q8N568); assay: DCAMKL2 Kinase panel; details: Compound concentration 1.0 uM
[7] = molecular target: MAP kinase-activated protein kinase 5 (Homo sapiens) (UniProt Q8IW41); assay: PRAK Kinase panel; details: Compound concentration 1.0 uM
[8] = molecular target: Protein kinase C zeta type (Homo sapiens) (UniProt Q05513); assay: PKC_zeta Kinase panel; details: Compound concentration 1.0 uM
Protein kinase C zeta type (Homo sapiens), sequence (Q05513 whole entry): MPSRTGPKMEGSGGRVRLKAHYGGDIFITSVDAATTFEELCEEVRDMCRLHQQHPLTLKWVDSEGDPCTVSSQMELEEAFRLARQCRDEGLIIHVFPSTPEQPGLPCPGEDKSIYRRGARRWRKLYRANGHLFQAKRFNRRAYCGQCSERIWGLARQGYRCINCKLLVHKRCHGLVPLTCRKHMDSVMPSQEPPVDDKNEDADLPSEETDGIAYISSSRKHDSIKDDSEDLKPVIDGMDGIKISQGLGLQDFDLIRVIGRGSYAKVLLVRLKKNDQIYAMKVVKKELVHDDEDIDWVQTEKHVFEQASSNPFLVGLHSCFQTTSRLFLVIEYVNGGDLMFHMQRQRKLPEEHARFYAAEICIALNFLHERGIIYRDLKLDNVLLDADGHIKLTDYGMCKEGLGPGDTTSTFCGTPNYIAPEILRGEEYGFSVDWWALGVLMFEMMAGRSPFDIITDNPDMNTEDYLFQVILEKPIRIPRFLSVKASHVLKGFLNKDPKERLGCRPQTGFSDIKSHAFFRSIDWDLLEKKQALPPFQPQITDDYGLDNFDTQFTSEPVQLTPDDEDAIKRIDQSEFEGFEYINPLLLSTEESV

[9] = molecular target: Cyclin-dependent kinase 5/CDK5 activator 1 (Homo sapiens) (UniProt Q00535+Q15078); assay: CDK5/p25 Kinase panel; format: protein-complex assay; details: Compound concentration 1.0 uM
Cyclin-dependent kinase 5/CDK5 activator 1 (Homo sapiens), sequence (Q00535 whole entry): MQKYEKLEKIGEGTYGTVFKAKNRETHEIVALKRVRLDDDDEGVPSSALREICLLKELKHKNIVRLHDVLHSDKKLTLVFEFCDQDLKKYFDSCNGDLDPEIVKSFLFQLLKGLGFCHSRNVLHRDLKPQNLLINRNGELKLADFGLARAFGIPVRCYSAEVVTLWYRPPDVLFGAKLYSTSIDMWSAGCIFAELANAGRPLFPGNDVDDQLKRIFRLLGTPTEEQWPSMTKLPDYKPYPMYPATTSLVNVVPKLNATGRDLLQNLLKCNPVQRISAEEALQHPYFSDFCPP
Cyclin-dependent kinase 5/CDK5 activator 1 (Homo sapiens), sequence (Q15078 99-307 partner limits assumed): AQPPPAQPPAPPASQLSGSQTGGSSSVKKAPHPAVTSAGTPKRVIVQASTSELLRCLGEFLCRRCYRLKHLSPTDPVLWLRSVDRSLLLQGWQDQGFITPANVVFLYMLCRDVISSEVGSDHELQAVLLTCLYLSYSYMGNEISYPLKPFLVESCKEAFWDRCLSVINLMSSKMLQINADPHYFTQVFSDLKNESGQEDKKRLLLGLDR

[10] = molecular target: Serine/threonine-protein kinase Nek4 (Homo sapiens) (UniProt P51957); assay: NEK4 Kinase panel; details: Compound concentration 1.0 uM
[11] = molecular target: Mitogen-activated protein kinase 8 (Homo sapiens) (UniProt P45983); assay: JNK1_alpha1 Kinase panel; details: Compound concentration 1.0 uM
[12] = molecular target: Dual specificity tyrosine-phosphorylation-regulated kinase 4 (Homo sapiens) (UniProt Q9NR20); assay: DYRK4 Kinase panel; details: Compound concentration 1.0 uM
[13] = molecular target: Delta-type opioid receptor (Homo sapiens) (UniProt P41143); details: Compound concentration 10.0 uM
[14] = molecular target: Protein kinase C epsilon type (Homo sapiens) (UniProt Q02156); assay: PKC_epsilon Kinase panel; details: Compound concentration 1.0 uM
[15] = molecular target: Receptor-type tyrosine-protein kinase FLT3 (Homo sapiens) (UniProt P36888); assay: Flt3 Kinase panel; details: Compound concentration 1.0 uM
[16] = molecular target: Muscarinic acetylcholine receptor M1 (Homo sapiens) (UniProt P11229); details: Compound concentration 10.0 uM
[17] = molecular target: PAS domain-containing serine/threonine-protein kinase (Homo sapiens) (UniProt Q96RG2); assay: PASK Kinase panel; details: Compound concentration 1.0 uM
[18] = molecular target: Serine/threonine-protein kinase pim-1 (Homo sapiens) (UniProt P11309); assay: PIM1 Kinase panel; details: Compound concentration 1.0 uM
Serine/threonine-protein kinase pim-1 (Homo sapiens), sequence (P11309 whole entry, looked up): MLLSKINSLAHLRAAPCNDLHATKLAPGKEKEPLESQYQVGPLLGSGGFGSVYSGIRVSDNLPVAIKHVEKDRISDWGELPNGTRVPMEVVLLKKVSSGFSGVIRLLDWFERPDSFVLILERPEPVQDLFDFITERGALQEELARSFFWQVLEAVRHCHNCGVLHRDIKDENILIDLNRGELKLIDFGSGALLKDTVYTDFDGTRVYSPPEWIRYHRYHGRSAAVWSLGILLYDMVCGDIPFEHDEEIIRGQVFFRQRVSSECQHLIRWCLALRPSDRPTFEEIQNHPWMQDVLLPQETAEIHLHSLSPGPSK

[19] = molecular target: Activin receptor type-1 (Homo sapiens) (UniProt Q04771); assay: ALK2 Kinase panel; details: Compound concentration 1.0 uM
[20] = molecular target: Mitogen-activated protein kinase 10 (Homo sapiens) (UniProt P53779); assay: JNK3 Kinase panel; details: Compound concentration 1.0 uM
[21] = molecular target: Tyrosine-protein kinase SYK (Homo sapiens) (UniProt P43405); assay: Syk Kinase panel; details: Compound concentration 1.0 uM
[22] = molecular target: Tyrosine-protein kinase Fgr (Homo sapiens) (UniProt P09769); assay: Fgr Kinase panel; details: Compound concentration 1.0 uM
Tyrosine-protein kinase Fgr (Homo sapiens), sequence (P09769 2-529 limits assumed): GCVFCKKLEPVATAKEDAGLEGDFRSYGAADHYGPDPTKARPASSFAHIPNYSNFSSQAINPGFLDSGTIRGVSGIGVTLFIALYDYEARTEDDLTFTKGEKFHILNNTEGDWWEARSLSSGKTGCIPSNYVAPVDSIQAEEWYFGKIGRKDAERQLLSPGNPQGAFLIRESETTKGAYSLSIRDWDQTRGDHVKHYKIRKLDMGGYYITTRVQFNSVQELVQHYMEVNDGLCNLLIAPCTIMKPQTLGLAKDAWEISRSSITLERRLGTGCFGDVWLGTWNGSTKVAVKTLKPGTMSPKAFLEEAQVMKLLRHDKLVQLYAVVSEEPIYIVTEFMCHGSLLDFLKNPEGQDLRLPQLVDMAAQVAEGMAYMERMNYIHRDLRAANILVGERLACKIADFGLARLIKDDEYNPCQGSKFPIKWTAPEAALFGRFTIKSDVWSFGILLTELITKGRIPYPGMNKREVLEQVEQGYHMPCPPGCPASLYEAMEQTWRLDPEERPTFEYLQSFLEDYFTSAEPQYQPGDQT

[23] = molecular target: Ribosomal protein S6 kinase alpha-2 (Homo sapiens) (UniProt Q15349); assay: RSK3 Kinase panel; details: Compound concentration 1.0 uM
[24] = molecular target: Serine/threonine-protein kinase B-raf (Homo sapiens) (UniProt P15056); assay: B-Raf Kinase panel; details: Compound concentration 1.0 uM
Serine/threonine-protein kinase B-raf (Homo sapiens), sequence (P15056 whole entry): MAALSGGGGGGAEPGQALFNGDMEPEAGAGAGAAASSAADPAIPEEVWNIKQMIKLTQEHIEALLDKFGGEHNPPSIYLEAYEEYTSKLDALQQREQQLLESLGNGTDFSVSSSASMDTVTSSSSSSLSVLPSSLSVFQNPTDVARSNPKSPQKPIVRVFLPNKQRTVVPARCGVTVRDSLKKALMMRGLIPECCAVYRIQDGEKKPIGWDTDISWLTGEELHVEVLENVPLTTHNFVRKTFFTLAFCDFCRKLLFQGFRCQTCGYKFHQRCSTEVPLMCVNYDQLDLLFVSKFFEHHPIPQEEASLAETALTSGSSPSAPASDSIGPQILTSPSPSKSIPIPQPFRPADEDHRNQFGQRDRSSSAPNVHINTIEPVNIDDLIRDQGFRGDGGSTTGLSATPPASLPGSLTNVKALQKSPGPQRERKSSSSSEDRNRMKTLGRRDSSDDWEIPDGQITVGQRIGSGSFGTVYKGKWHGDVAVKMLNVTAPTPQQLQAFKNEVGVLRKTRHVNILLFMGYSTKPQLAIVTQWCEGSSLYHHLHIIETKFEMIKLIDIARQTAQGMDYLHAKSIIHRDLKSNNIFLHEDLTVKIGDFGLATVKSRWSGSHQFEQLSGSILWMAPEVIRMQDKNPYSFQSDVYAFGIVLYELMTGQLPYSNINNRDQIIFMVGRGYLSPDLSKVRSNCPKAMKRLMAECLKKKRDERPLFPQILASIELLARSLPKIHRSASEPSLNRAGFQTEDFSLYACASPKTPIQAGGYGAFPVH

[25] = molecular target: Dual specificity protein kinase CLK2 (Homo sapiens) (UniProt P49760); assay: CLK2 Kinase panel; details: Compound concentration 1.0 uM
[26] = molecular target: Aurora kinase B (Homo sapiens) (UniProt Q96GD4); assay: Aurora_B Kinase panel; details: Compound concentration 1.0 uM
[27] = molecular target: G protein-coupled receptor kinase 5 (Homo sapiens) (UniProt P34947); assay: GRK5 Kinase panel; details: Compound concentration 1.0 uM
[28] = molecular target: Death-associated protein kinase 1 (Homo sapiens) (UniProt P53355); assay: DAPK1 Kinase panel; details: Compound concentration 1.0 uM
[29] = molecular target: Mitogen-activated protein kinase kinase kinase 2 (Homo sapiens) (UniProt Q9Y2U5); assay: MEKK2 Kinase panel; details: Compound concentration 1.0 uM
[30] = molecular target: Vascular endothelial growth factor receptor 2 (Homo sapiens) (UniProt P35968); assay: KDR Kinase panel; details: Compound concentration 1.0 uM
[31] = molecular target: Tyrosine-protein kinase Mer (Homo sapiens) (UniProt Q12866); assay: Mer Kinase panel; details: Compound concentration 1.0 uM
[32] = molecular target: Mitogen-activated protein kinase 12 (Homo sapiens) (UniProt P53778); assay: p38_gamma Kinase panel; details: Compound concentration 1.0 uM
[33] = molecular target: 5-hydroxytryptamine receptor 2B (Homo sapiens, UniProt P41595); assay: GPCRScan assay: inhibition of 5-HT2B; parameters: radioligand conc. used [nm] 1.0 – 2.0, parental cells stable HEK
[34] = molecular target: 5-hydroxytryptamine receptor 1D (Homo sapiens) (UniProt P28221); details: Compound concentration 10.0 uM
Homo sapiens = organism: Homo sapiens; assay: (§1) TAK1-TAB1 Kinase panel; details: Compound concentration 1.0 uM
[35] = as §1; parameters: species or system Homo sapiens
[36] = molecular target: Alpha-1D adrenergic receptor (Homo sapiens) (UniProt P25100); details: Compound concentration 10.0 uM
[37] = molecular target: Sigma non-opioid intracellular receptor 1 (Homo sapiens) (UniProt Q99720); details: Compound concentration 10.0 uM
Sigma non-opioid intracellular receptor 1 (Homo sapiens), sequence (Q99720 whole entry): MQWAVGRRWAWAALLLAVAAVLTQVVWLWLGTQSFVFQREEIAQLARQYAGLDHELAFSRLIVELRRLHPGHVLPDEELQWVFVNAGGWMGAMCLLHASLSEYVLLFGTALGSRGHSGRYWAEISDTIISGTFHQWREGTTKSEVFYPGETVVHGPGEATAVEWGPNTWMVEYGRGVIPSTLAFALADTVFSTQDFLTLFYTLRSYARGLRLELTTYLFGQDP

[38] = molecular target: Protein kinase C delta type (Homo sapiens) (UniProt Q05655); assay: PKC_delta Kinase panel; details: Compound concentration 1.0 uM
[39] = molecular target: Alpha-2A adrenergic receptor (Homo sapiens) (UniProt P08913); details: Compound concentration 10.0 uM
[40] = molecular target: Mitogen-activated protein kinase 1 (Homo sapiens) (UniProt P28482); assay: ERK2 Kinase panel; details: Compound concentration 1.0 uM
[41] = molecular target: NUAK family SNF1-like kinase 1 (Homo sapiens) (UniProt O60285); assay: ARK5 Kinase panel; details: Compound concentration 1.0 uM
[42] = molecular target: Tyrosine-protein kinase FRK (Homo sapiens) (UniProt P42685); assay: Frk Kinase panel; details: Compound concentration 1.0 uM
[43] = molecular target: Tyrosine-protein kinase Lyn (Homo sapiens) (UniProt P07948); assay: Lyn Kinase panel; details: Compound concentration 1.0 uM
[44] = molecular target: Muscle, skeletal receptor tyrosine-protein kinase (Homo sapiens) (UniProt O15146); assay: MuSK Kinase panel; details: Compound concentration 1.0 uM
Muscle, skeletal receptor tyrosine-protein kinase (Homo sapiens), sequence (O15146 whole entry): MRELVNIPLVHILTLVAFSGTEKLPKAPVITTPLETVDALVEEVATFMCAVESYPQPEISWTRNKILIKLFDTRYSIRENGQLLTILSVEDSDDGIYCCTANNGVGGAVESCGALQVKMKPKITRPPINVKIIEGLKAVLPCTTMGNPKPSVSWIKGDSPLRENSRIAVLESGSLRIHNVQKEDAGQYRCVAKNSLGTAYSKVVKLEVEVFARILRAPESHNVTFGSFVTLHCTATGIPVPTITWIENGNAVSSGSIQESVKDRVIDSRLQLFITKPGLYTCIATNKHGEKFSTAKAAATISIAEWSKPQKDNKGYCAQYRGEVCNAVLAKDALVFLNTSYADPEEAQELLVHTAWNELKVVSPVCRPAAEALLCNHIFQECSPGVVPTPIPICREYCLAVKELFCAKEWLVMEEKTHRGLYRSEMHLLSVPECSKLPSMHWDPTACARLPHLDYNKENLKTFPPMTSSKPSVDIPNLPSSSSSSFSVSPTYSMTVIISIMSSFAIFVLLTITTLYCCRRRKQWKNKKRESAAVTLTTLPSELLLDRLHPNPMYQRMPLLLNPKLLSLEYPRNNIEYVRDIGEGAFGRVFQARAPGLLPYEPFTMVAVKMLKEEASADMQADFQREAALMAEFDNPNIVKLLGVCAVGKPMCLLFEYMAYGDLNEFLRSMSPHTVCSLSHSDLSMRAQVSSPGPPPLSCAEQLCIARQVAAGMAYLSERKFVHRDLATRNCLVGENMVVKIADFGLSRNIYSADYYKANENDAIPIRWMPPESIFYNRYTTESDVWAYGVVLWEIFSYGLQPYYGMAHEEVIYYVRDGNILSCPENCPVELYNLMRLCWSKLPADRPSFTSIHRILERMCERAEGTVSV

[45] = molecular target: Myotonin-protein kinase (Homo sapiens) (UniProt Q09013); assay: DMPK Kinase panel; details: Compound concentration 1.0 uM
Myotonin-protein kinase (Homo sapiens), sequence (Q09013 whole entry): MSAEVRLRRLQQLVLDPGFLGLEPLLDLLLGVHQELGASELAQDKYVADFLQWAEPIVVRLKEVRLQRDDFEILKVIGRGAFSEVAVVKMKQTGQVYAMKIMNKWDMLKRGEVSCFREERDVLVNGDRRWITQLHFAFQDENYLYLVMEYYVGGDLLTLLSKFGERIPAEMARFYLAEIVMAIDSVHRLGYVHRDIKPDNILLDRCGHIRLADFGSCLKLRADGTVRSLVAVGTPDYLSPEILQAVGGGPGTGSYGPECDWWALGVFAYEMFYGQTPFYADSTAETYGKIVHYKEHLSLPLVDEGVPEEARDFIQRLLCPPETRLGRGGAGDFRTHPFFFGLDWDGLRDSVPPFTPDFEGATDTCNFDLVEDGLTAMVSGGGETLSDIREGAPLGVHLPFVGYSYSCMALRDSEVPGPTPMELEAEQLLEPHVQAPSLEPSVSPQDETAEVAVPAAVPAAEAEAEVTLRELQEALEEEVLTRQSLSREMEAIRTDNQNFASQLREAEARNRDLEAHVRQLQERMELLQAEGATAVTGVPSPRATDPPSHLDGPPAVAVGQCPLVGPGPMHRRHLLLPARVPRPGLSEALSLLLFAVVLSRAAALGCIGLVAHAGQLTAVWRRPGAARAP

[46] = R848-induced IL-6 production in human whole blood; format: tissue-based
[47] = molecular target: Mitogen-activated protein kinase 11 (Homo sapiens) (UniProt Q15759); assay: p38_beta Kinase panel; details: Compound concentration 1.0 uM
[48] = molecular target: Serine/threonine-protein kinase PLK1 (Homo sapiens) (UniProt P53350); assay: PLK1 Kinase panel; details: Compound concentration 1.0 uM
[49] = molecular target: Mitogen-activated protein kinase kinase kinase kinase 5 (Homo sapiens) (UniProt Q9Y4K4); assay: KHS1 Kinase panel; details: Compound concentration 1.0 uM
[50] = molecular target: Serine/threonine-protein kinase Sgk2 (Homo sapiens) (UniProt Q9HBY8); assay: SGK2 Kinase panel; details: Compound concentration 1.0 uM
[51] = molecular target: Calcium/calmodulin-dependent protein kinase type II subunit alpha (Homo sapiens) (UniProt Q9UQM7); assay: CamKII_alpha Kinase panel; details: Compound concentration 1.0 uM
Calcium/calmodulin-dependent protein kinase type II subunit alpha (Homo sapiens), sequence (Q9UQM7 whole entry): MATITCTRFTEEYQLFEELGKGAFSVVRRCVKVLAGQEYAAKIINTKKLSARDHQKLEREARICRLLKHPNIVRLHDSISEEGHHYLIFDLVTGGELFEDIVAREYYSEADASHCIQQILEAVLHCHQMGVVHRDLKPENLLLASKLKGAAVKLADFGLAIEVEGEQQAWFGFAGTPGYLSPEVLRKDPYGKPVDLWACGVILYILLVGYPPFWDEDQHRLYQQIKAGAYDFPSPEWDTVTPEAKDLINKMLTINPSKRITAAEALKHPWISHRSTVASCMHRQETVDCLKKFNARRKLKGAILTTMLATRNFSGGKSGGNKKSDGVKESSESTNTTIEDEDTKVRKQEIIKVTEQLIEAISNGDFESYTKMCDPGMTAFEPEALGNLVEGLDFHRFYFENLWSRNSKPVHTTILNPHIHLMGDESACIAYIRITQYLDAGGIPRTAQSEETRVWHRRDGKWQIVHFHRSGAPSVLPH

[52] = molecular target: Ephrin type-A receptor 1 (Homo sapiens) (UniProt P21709); assay: EphA1 Kinase panel; details: Compound concentration 1.0 uM
[53] = molecular target: 5-hydroxytryptamine receptor 6 (Homo sapiens) (UniProt P50406); details: Compound concentration 10.0 uM
[54] = molecular target: Sodium-dependent noradrenaline transporter (Homo sapiens) (UniProt P23975); details: Compound concentration 10.0 uM
[55] = molecular target: Serine/threonine-protein kinase 25 (Homo sapiens) (UniProt O00506); assay: YSK1 Kinase panel; details: Compound concentration 1.0 uM

`CC(C)(O)[C@H](F)CN1Cc2cc(NC(=O)c3cnn4cccnc34)c(N3CCOCC3)cc2C1=O` showed an inhibition [1] of 0.5%, an inhibition [2] of 5% and an inhibition [3] of -5.5%. The inhibition [4] was 3.5%, the inhibition [5] was -2% and the inhibition [6] was 0.5%. The inhibition [7] was -3.5%, the inhibition [8] was 6% and the inhibition [9] was 9%. For the same molecule, the inhibition [10] was 10%, the inhibition [11] was -1.5% and the inhibition [12] was -5%. For the same molecule, the inhibition [13] was -7.48%, the inhibition [14] was 13% and the inhibition [15] was 90.8%. For the same molecule, the inhibition [16] was -9.03%, the inhibition [17] was -6.5% and the inhibition [18] was 1.5%. The inhibition [19] was 8%, the inhibition [20] was 10.5% and the inhibition [21] was 9%. The inhibition [22] was 53%, the inhibition [23] was 9% and the inhibition [24] was -0.5%. The inhibition [25] was 20.3%, the inhibition [26] was 21.3% and the inhibition [27] was -2%. For the same molecule, the inhibition [28] was 5.5%, the inhibition [29] was 3.5% and the inhibition [30] was 17%. The inhibition [31] was 28%, the inhibition [32] was 0.5% and the Ki [33] was 509 nM. It also gave an inhibition [34] of 33.2%, an inhibition (Homo sapiens) of 74.5% and an IC50 [35] of 966 nM. The inhibition [36] was 6.71%, the inhibition [37] was 9.11% and the inhibition [38] was 12.5%. The inhibition [39] was 9.09%, the inhibition [40] was 0.5% and the inhibition [41] was 23.5%. The inhibition [42] was 5.5%, the inhibition [43] was 55.3% and the inhibition [44] was 13%. The inhibition [45] was 2.1%, the IC50 [46] was 190 nM (active) and the inhibition [47] was 4%. It also gave an inhibition [48] of -2%, an inhibition [49] of 36.5% and an inhibition [50] of 5.5%. It also gave an inhibition [51] of 2.5%, an inhibition [52] of 20.8% and an inhibition [53] of 7.46%. It also gave an inhibition [54] of 2.12% and an inhibition [55] of 5%.
